{"source": "patent US11986529B2", "about": "“Pharmaceutical compositions and related methods of delivery” (priority 2008, dated 2024)", "key": {"[1]": {"conditions": "rat, in vivo", "procedure": "Rats were anesthetized and were administered 100 μL of bulk drug formulation containing an insulin dose of 328 μg/rat (9 IU/rat). Blood samples were collected at 0, 3, 6, 10, 15, 25, 30, 40, 60 and 90 minutes post administration and serum was prepared for determination of human insulin by an immunoassay kit with no cross reactivity between rat and human insulin.\nRats were anesthetized and administered 100 μL of test article (insulin in formulation or insulin in PBS) containing an insulin dose of 328 μg/rat (9 IU/rat). Blood samples were collected at 0, 3, 6, 10, 15, 25, 30, 40, 60 and 90 minutes post administration. Glucose level was immediately determined with a glucometer and serum was prepared for determination of human insulin by an immunoassay kit with no cross reactivity between rat and human insulin.\nBlood samples were collected at 0, 3, 6, 10, 15, 25, 30, 40, 60 and 90 minutes post rectal administration and at 0, 15, 30, 45, 60, 90 min, 2, 3, and 4 hours post SC administration. Glucose was immediately determined with a glucometer and insulin by an immunoassay kit. Glucose levels are presented as the percentage form basal levels measured before administration (time 0).\nThe levels of insulin absorption from rat colon after insulin in formulation administration were compared to the levels of insulin absorbed after SC administration. […]"}, "[2]": {"assay": "Capsule administration to small intestine of non-anesthetized pigs (Nipple Valve gastric bypass)", "conditions": "pig, in vivo; read-out: level of bioavailability in pigs, extrapolated from rat results", "from_the_text": "In order to test the activity of the formulations of the invention when administrated in capsules, an animal model allowing capsule administration to pigs (domestic swine) was established. In order to bypass the stomach and allow direct administration of capsules to the small intestine of the pig, a well established model in dogs (“Nipple Valve model”; Wilsson-Rahmberg & O. Jonsson, Laboratory Animals (1997), 31, 231-240) was adapted to the commercial pig.\nThe two octreotide formulations shown below in Table 37 were prepared. The octreotide (x) formulation was prepared essentially as described above for the basic formulation wherein the hydrophilic fraction has been simplified to omit MgCl2 and MC400. […] The capsules were not enteric-coated i.e. they were uncoated.\nThe formulations described above in Table 37 were administered directly to the small intestine of the non-anesthetized pigs via the gastric bypass described above, and plasma octreotide levels were measured post-administration. Exposure values, AUC were determined for the formulations. The % BA was calculated compared to the exposure to octreotide after subcutaneous administration."}, "[3]": {"conditions": "rat, in vivo", "remark": "listed apart in the source", "procedure": "(§1) Rats are allowed to recover for 4 days before the study and are deprived of food for 18 hours before the start of the study.\n(§2) Levels of plasma dextran following administration of dextran in formulation or in saline were compared to the levels of plasma dextran after intravenous administration. Exposure values, AUC (0-90), were determined for jejunal and intravenous administration and the absolute bioavailability (aBA) was calculated according to the following equation: aBA=(jejunal AUC(0-90))/(iv AUC(0-90))*(iv dose/jejunal dose). Data are presented as Mean±SD (n≥5 rats per group).\n(§3) The levels of dextran absorption from rat jejunum after administration of dextran in formulation were compared to the levels of dextran absorbed after intravenous administration. Exposure values, AUC (0-90), were determined for jejunal and intravenous administration and the absolute bioavailability (aBA) determined according to the following equation: aBA=(jejunal AUC(0-90))/(iv AUC(0-90))*(iv dose/jejunal dose). Data are presented as Mean±SD (n≥5 rats per group).\n(§4) The levels of dextran absorption from rat jejunum after administration of dextran in formulation were compared to the levels of dextran absorbed after intravenous administration. Exposure values, AUC (0-90), were determined for jejunal and intravenous administration and the absolute Bioavailability (aBA) was determined according to the following equation: aBA=(jejunal AUC(0-90))/(iv AUC(0-90))*(iv dose/jejunal dose). Data are presented as Mean±SD (n≥5 rats per group)."}, "[4]": {"conditions": "rat, in vivo", "remark": "listed apart in the source", "source_text": "Enteric-coated capsules for rats are not available and therefore stomach bypass enabling direct intra-jejunal administration is needed.\nA specialized rat model in which three different cannulas are surgically implanted in anesthetized rats was developed: 1. Jejunal cannula—stomach bypass, enables insulin formulation administration, 2. Portal vein cannula—blood sampling prior to the liver, determine insulin that cross the GI wall into the blood, and 3. Jugular vein cannula—to determine the systemic levels of insulin.\nRats (8 rats per group) were anesthetized and their jejunum exposed by abdominal surgery. The jejunum containing intestinal loop was placed on gauze and kept moist and fully intact throughout the entire study. A temporary cannula was inserted into the jejunum and formulated insulin was administered. Blood was collected from both portal and jugular veins at the same time points, with approximately 4 time points per rat. The MEAN±SD value of each time point was used to create a plasma concentration vs. time curve. AUC was determined and rBA was calculated."}, "[5]": {"system": "blood glucose", "assay": "Blood glucose after rectal administration of insulin to rats", "format": "in vivo", "conditions": "rat, insulin 328 μg/rat", "from_the_text": "The data of FIG. 3 is presented as MEAN±SD, n=5."}, "[6]": {"assay": "Intra-jejunal administration to non-anesthetized cannulated rats: plasma cargo levels, AUC, bioavailability", "conditions": "rat", "procedure": "as §1, §2, §3, §4"}}, "note": "Where two headings read alike, the source gives them in different places.", "data": [{"compound": "hGH in PBS: human growth hormone in PBS, control", "values": [{"measurement": "penetration to the bloodstream", "setting": "[1]", "value": "no penetration to the bloodstream"}]}, {"compound": "C[C@@H](O)[C@@H]1NC(=O)[C@H](CCCCN)NC(=O)[C@@H](Cc2c[nH]c3ccccc23)NC(=O)[C@H](Cc2ccccc2)NC(=O)[C@@H](NC(=O)[C@H](N)Cc2ccccc2)CSSC[C@@H](C(=O)N[C@H](CO)[C@@H](C)O)NC1=O", "note": "[octreotide]", "values": [{"measurement": "bioavailability", "setting": "[2]", "value": "~0.1", "unit": "%"}]}, {"compound": "CCNC(=O)[C@@H]1CCCN1C(=O)[C@H](CCCNC(=N)N)NC(=O)[C@H](CC(C)C)NC(=O)[C@@H](CC(C)C)NC(=O)[C@H](Cc1ccc(O)cc1)NC(=O)[C@H](CO)NC(=O)[C@H](Cc1c[nH]c2ccccc12)NC(=O)[C@H](Cc1c[nH]cn1)NC(=O)[C@@H]1CCC(=O)N1", "note": "[leuprolide in PBS, leuprolide]", "values": [{"measurement": "bioavailability / penetration to the bloodstream", "setting": "[3]", "value": "negligible penetration to the bloodstream"}]}, {"compound": "CC[C@H](C)[C@H](NC(=O)[C@H](CCC(=O)O)NC(=O)[C@H](CO)NC(=O)[C@@H](NC(=O)[C@@H](N)CO)C(C)C)C(=O)N[C@@H](CCC(N)=O)C(=O)N[C@@H](CC(C)C)C(=O)N[C@@H](CCSC)C(=O)N[C@@H](Cc1cnc[nH]1)C(=O)N[C@@H](CC(N)=O)C(=O)N[C@@H](CC(C)C)C(=O)NCC(=O)N[C@@H](CCCCN)C(=O)N[C@@H](Cc1cnc[nH]1)C(=O)N[C@@H](CC(C)C)C(=O)N[C@@H](CC(N)=O)C(=O)N[C@@H](CO)C(=O)N[C@@H](CCSC)C(=O)N[C@@H](CCC(=O)O)C(=O)N[C@@H](CCCN=C(N)N)C(=O)N[C@H](C(=O)N[C@@H](CCC(=O)O)C(=O)N[C@@H](Cc1c[nH]c2ccccc12)C(=O)N[C@@H](CC(C)C)C(=O)N[C@@H](CCCN=C(N)N)C(=O)N[C@@H](CCCCN)C(=O)N[C@@H](CCCCN)C(=O)N[C@@H](CC(C)C)C(=O)N[C@@H](CCC(N)=O)C(=O)N[C@@H](CC(=O)O)C(=O)N[C@H](C(=O)N[C@@H](Cc1cnc[nH]1)C(=O)N[C@@H](CC(N)=O)C(=O)N[C@@H](Cc1ccccc1)C(=O)O)C(C)C)C(C)C", "note": "[teriparatide in saline, teriparatide]", "values": [{"measurement": "bioavailability / penetration to the bloodstream", "setting": "[3]", "value": "no penetration to the bloodstream"}]}, {"compound": "insulin control: unformulated insulin control given intra-jejunally", "values": [{"measurement": "insulin absorbance", "setting": "[4]", "value": "minimal insulin absorbance"}]}, {"compound": "insulin in PBS: human insulin solubilized in PBS", "values": [{"measurement": "glucose reduction", "setting": "[5]", "value": "only a very slight glucose reduction"}]}, {"compound": "CN[C@H](CC(C)C)C(=O)N[C@H]1C(=O)N[C@@H](CC(N)=O)C(=O)N[C@H]2C(=O)N[C@H]3C(=O)N[C@H](C(=O)N[C@H](C(=O)O)c4cc(O)cc(O)c4-c4cc3ccc4O)[C@H](O)c3ccc(c(Cl)c3)Oc3cc2cc(c3O[C@@H]2O[C@H](CO)[C@@H](O)[C@H](O)[C@H]2O[C@H]2C[C@](C)(N)[C@H](O)[C@H](C)O2)Oc2ccc(cc2Cl)[C@H]1O", "note": "[vancomycin in saline solution, vancomycin]", "values": [{"measurement": "bioavailability / penetration to the bloodstream", "setting": "[6]", "value": "no BA was detected"}]}]}
